In publication PMC11344848, “Proximity-driven site-specific cyclization of phage-displayed peptides” (Nature Communications, 2024):

Experiment: N-terminal-to-internal Cys bridging with heterobifunctional cyclopropenone-chloroacetamide linker (CCA): DTT reduction, cyclopropenone condensation with N-terminal Cys 1,2-aminothiol (1,4-thiazepan-5-one), then proximity-driven intramolecular thioether formation between internal Cys thiol and chloroacetamide
Settings: the molecule shown is the open-chain precursor, PBS pH 7.4, 5% DMSO, 0.01 mM, 25.0 °C, 2.0 h, 2 steps

## N=C(N)NCCC[C@H](NC(=O)[C@@H]1CCCN1C(=O)[C@H](CS)NC(=O)[C@H](CC(N)=O)NC(=O)[C@H](CCC(N)=O)NC(=O)[C@H](Cc1ccccc1)NC(=O)[C@H](Cc1ccc(O)cc1)NC(=O)[C@@H]1CSCC(CCCC(=O)N2CCN(C(=O)CCl)CC2)C(=O)N1)C(=O)NCC(N)=O (stereo partly drawn) [H-CYFQNCPRG-NH2]
31-membered ring
  ring closure, conversion by HPLC: > 95%

## H-CGGSGGC-[WLAAA-D1/D2 pIII fusion]
34-membered ring
  ring closure, conversion by HPLC: 100%

## H-CGSGGSGC-[AAA-D1/D2 pIII fusion]
37-membered ring
  ring closure, conversion by HPLC: 100%

## H-CPEGYILDDGFCTDIDE-[D1/D2 pIII fusion]
49-membered ring
  ring closure, conversion by HPLC: 100%

## H-CQPHPGQTC-[AAA-D1/D2 pIII fusion]
40-membered ring
  ring closure, conversion by HPLC: 100%

## H-CYKLAEGDKYYIC-[D1/D2 pIII fusion]
52-membered ring
  ring closure, conversion by HPLC: 100%
